Biological target: T1, Glucose-dependent insulinotropic receptor (Homo sapiens, UniProt Q8TDV5)
T1 sequence (Q8TDV5 whole entry): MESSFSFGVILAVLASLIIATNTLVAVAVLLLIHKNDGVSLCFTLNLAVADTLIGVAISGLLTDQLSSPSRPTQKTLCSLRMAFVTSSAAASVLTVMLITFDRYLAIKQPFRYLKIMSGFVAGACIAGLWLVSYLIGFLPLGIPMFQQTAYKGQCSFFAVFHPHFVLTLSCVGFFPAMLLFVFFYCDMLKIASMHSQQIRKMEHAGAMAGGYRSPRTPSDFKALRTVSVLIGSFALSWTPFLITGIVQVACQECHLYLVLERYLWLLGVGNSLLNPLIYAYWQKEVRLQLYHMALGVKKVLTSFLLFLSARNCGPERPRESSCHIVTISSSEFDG
Assay: AlphaScreen cAMP Assay: MIN6 cells [Miyazaki J et al. Endocrinology. 1990 July; 127(1):126-32] were stably transfected with an expression vector for human GPR119 cDNA (Acc. No. NP-848566). Min-6/hGPR119 cells are cultured in DMEM, 10% FBS, 50 uM beta-mercaptoethanol, 0.3 mg/mL Geniticin, 2 mM GlutaMAX at 37 C. 5% CO2. For the assay, the cells are placed in Optiplates (white, 384-well, 160W-barcoded, TC, sterile with lid, Cat. No. #6007688 (Perkin Elmer); 10000 cells/well; 50 ul). The plates covered with lids are then incubated for 24 hours at 37 C./5% CO2.After the medium has been sucked out of the wells completely, 10 ul of the test compound are added, the compounds are diluted beforehand with stimulating buffer (140 mM NaCl, 3.6 mM KCl, 0.5 mM NaH2PO4, 0.5 mM MgSO4, 1.5 mM CaCl2, 10 mM Hepes, 5 mM NaHCO3; pH 7.4. 0.5 mM IBMX and 0.1% BSA, the final DMSO concentration is 1%). After 45 minutes' incubation at RT, the cAMP concentrations are determined using the AlphaScreen cAMP Assay.
Type: functional, cell-based

Structure (SMILES) | EC50 [nM]
CC1CC(=O)NN=C1c1ccc2nc(-c3ccsc3)oc2c1 (stereo not drawn) | 267
CCOc1ccc(-c2nc3ccc(C4=NNC(=O)CC4CC)cc3o2)cc1 (stereo not drawn) | 114
CC[C@H]1CC(=O)NN=C1c1ccc2nc(-c3ccccc3)oc2c1 | > 10000
